Experimental data taken from patent publication US9988400B2 (Genentech, Inc., priority 2013, dated 2018).
pEC50: −log10 of the molar value.

biological target: T1, HEK cells stably transfected with tetracycline inducible hNR1 and hNR2A (Homo sapiens, UniProt Q05586+Q12879); assay: Assay 1: Cell-Based Assay, cytosolic calcium response to positive allosteric modulators (with 30 μM glycine and 300 nM L-glutamate, EC30); settings: Table 3; cytosolic calcium response, with 30 μM glycine and 300 nM L-glutamate (EC30); — = no plateau was reached
T1 construct: expressed in transfected cells; host or cells: HEK cells, stably transfected, tetracycline/doxycycline inducible
T1 sequence (Q12879 23-1464, other chains not shown): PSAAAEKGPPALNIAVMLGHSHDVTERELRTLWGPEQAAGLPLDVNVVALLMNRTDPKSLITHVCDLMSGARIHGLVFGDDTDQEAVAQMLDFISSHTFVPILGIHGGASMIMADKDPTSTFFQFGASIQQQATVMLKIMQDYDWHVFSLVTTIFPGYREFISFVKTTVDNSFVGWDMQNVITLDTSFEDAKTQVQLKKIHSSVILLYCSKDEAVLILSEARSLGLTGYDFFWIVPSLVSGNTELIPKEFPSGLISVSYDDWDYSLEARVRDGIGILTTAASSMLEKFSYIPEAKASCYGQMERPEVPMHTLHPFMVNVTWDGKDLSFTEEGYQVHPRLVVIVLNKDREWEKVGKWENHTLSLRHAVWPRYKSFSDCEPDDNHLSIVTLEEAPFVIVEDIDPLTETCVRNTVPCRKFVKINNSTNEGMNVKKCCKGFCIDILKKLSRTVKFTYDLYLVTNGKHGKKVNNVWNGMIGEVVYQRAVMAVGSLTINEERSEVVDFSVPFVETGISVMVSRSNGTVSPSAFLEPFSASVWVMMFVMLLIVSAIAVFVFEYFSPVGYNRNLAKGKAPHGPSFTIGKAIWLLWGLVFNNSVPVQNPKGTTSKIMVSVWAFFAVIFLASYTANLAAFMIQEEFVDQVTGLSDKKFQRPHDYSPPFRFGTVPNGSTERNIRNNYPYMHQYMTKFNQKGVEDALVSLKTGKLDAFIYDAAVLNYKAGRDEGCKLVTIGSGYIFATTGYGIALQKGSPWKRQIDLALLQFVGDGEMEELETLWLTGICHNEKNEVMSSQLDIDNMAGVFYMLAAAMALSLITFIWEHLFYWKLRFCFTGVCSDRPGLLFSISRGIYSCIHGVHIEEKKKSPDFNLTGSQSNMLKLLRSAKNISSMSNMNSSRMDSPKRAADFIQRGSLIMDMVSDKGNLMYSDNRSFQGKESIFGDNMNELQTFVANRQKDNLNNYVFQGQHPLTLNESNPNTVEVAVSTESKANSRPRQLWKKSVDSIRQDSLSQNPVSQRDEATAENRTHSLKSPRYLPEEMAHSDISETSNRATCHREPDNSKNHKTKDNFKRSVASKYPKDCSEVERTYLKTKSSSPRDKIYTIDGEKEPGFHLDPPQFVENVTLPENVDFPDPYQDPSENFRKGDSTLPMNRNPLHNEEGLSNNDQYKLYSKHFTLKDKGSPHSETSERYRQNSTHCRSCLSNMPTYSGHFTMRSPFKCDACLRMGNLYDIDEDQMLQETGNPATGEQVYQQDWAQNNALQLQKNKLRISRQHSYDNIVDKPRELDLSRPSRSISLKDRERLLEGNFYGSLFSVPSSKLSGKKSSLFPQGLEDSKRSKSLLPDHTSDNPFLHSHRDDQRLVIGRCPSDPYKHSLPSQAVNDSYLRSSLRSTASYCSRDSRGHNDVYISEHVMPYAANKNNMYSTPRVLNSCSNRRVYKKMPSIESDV
How it was run: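 Cells induced 24 h with 7.5 μg mL^−1 doxycycline plus 500 μM (+)-ketamine, loaded 60 min at 37 °C with calcium dye in Mg-free HBSS (1.8 mM Ca, probenecid, 10 μM (+)-ketamine, pH 7.15). Peak RFU over 5 min after compound addition, scaled to 100 μM L-glutamate (100%) and 0 μM (0%); four-parameter Hill fit for EC50, max % if no plateau.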

| SMILES | pEC50 |
| --- | --- |
| Cc1sc2nc(Cc3nn(C)cc3Cl)cc(=O)n2c1C1CC1C#N (stereo not drawn) [compound 271, 2-[7-[(4-chloro-1-methyl-pyrazol-3-yl)methyl]-2-methyl-5-oxo-thiazolo[3,2-a]pyrimidin-3-yl]cyclopropanecarbonitrile] | 5.45 |
| Cc1sc2nc(Cc3nc(C(F)(F)F)cn3C)cc(=O)n2c1C1CC1C#N (stereo not drawn) [compound 278, 2-[2-methyl-7-[[1-methyl-4-(trifluoromethyl)imidazol-2-yl]methyl]-5-oxo-thiazolo[3,2-a]pyrimidin-3-yl]cyclopropanecarbonitrile] | 4.97 |
| CCN(Cc1cc(=O)n2c(/C=C/C#N)c(C)sc2n1)c1ccc(F)cc1 [compound 279, (E)-3-[7-[(N-ethyl-4-fluoro-anilino)methyl]-2-methyl-5-oxo-thiazolo[3,2-a]pyrimidin-3-yl]prop-2-enenitrile] | 5.74 |
